This note sets out measurements from paper PMC6940896, “Development of a Highly Efficient Hybrid Peptide That Increases Immunomodulatory Activity Via the TLR4-Mediated Nuclear Factor-κB Signaling Pathway” (International Journal of Molecular Sciences, 2019).

No end group written: not given here.

Experiment [1] concerns the target T1, TLR4/MD-2 (Mus musculus, UniProt Q9JHF9+Q9QUK6).
T1 construct: endogenous in cells; host or cells: RAW264.7
T1 sequence (Q9QUK6 26-835): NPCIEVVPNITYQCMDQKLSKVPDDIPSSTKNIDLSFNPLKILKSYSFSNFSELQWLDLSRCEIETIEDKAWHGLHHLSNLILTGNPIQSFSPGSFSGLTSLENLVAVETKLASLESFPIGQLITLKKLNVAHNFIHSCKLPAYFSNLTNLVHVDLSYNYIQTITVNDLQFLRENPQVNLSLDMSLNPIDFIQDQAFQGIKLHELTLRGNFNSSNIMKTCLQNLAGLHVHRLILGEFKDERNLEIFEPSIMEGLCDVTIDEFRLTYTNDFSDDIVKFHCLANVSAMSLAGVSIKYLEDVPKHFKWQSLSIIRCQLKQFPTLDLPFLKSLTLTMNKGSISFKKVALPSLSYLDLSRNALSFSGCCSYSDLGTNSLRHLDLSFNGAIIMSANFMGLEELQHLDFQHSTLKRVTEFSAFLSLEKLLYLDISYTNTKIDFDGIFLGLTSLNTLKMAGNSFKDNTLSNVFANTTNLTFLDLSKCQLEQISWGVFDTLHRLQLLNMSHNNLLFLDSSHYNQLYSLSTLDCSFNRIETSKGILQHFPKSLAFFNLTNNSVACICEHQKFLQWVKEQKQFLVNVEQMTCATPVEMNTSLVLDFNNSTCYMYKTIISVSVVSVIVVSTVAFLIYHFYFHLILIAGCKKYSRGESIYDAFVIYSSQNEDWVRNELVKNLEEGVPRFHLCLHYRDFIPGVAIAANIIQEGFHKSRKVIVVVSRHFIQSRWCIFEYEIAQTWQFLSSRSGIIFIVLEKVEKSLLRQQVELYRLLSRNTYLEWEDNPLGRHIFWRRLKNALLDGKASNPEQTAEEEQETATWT
T1 sequence (Q9JHF9 19-160): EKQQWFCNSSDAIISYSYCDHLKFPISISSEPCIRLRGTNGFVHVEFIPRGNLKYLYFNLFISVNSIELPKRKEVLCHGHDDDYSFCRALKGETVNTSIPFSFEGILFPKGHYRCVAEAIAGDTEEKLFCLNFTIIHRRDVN
Briefly: Cytokine production in RAW264.7 cells with or without TLR4/MD-2 mAb pretreatment. The conditions noted are these: then 10 μg/mL peptide 24 h, ELISA, n = 3. It counts as cell-based. As for the experimental part:
RAW264.7 cells were treated with PBS or an anti-mouse mAbTLR4/MD-2 complex (MTS510 Ab) (eBioscience, San Diego, CA, USA) at 37 °C for 1 h, and RAW264.7 cells were treated with or without 10 μg/mL peptides for 24 h at 37 °C in a moist atmosphere (5% CO2, 95% air). Levels of TNF-α, IL-6, and IL-1β in the culture supernatant were detected by ELISA.
On the technique in general: An ELISA detects its analyte on a solid surface through an enzyme-linked reagent.

Experiment [2] relates to CTX-immunosuppressed Balb/c mice. Briefly: Serum cytokine and immunoglobulin ELISA in CTX-immunosuppressed mice. The conditions noted are these: peptide 10 mg/kg ip days 4-10, ELISA, n = 12. It counts as in vivo, mouse. The procedure: Sigma-Aldrich, St. Louis, MO, USA) group, a LL-37 group, a Tα1 group, and a LTAa group. For the first 3 days, CTX (80 mg/kg mouse weight) was administered intraperitoneally once daily to establish the immunosuppressed animal model. From days 4 to 10 (7 days), peptides (10 mg/kg mouse weight) were administered intraperitoneally each day. The CTX group was only treated with CTX, and the control group was given sterile saline. The dose volume was 200 μL. Twenty-four hours after the last dose, the mice were killed and their tissues and blood collected for analysis. The body weight index was calculated in the following way:(2) Index (%)=final body weight-[…] body weight/initial body weight ×100% Serum was obtained from blood by centrifugation at 1000 × g for 20 min. Levels of TNF-α, IL-6, IL-1β, IgG, IgA, and IgM in the serum were detected by ELISA.

For the sequence IGKEFKRIVQRIKDFLRNLVPRTEKEKKEVVE [LTAa], in experiment [1] (RAW264.7, PBS 1 h), the “TNF-α, IL-6 and IL-1β production, PBS pretreatment” value was “significant increase”. For the same sequence, the “TNF-α, IL-6 and IL-1β production induced by LTAa after TLR4/MD-2 mAb pretreatment” value in experiment [1] (RAW264.7, TLR4/MD-2 mAb (MTS510 Ab) 1 h) is recorded as “significantly inhibited”. In addition, the “serum TNF-α, IL-6 and IL-1β levels” value in experiment [2] was “significantly higher TNF-α, IL-6, and IL-1β concentrations than those in the Tα1- or LL-37-treated groups”.
